The test system of one data set is T-cell clones. Nature of the data set: Generation and drug-specificity testing of T-cell clones. The data set is classed as cell-based, human. Conditions: priming assay and/or T-cell clones. How it is done: To establish T-cell lines, PBMC from 3 healthy HLA-typed (Table 2) donors were cultured with individual test compounds (at concentrations not associated with inhibition of mitogen-driven PBMC proliferation; see Figure 2 for individual concentrations) for 14 days. Medium was supplemented with IL-2 (50 U/ml; Peprotech, New Jersey) to maintain drug-specific T-cell expansion. T-cell clones were generated from the T-cell lines by serial dilution and repetitive mitogen stimulation ([Schnyder et al., 2000]). T-cells (0.3–3 cells/well) were cultured with irradiated allogenic PBMC (5 × 10^4/well) and PHA-P (1 µg/ml) in IL-2 containing medium. The medium was supplemented with fresh IL-2 on days 6, 9 and every 2 days thereafter. Growing cultures were expanded further with a second round of mitogen stimulation and tested for drug-specific T-cell proliferation on day 28. Cloned T-cells (5 × 10^4/well) were cultured with irradiated autologous EBV-transformed B-cells (1 × 10^4/well) and drug in duplicate wells for 48 h. Wells containing medium served as a negative control. Proliferation was measured by the addition of [^3H]-thymidine followed by scintillation counting. T-cell clones with SI ≥ 2 were considered drug-responsive and expanded using irradiated allogeneic PBMC for dose-response studies and assessment of CD4/8 phenotyping.
Proliferation was measured by the addition of [^3H]-thymidine as described above.
T-cell clones were washed with FACS buffer and CD phenotype determined using flow cytometry. Cells (10 000) were acquired using a FACSCanto II (BD Biosciences) and data analyzed by FACSDiva software.
Figure 6. Generation of training compound (nitroso sulfamethoxazole, vancomycin, and Bandrowski’s base)-specific T-cell clones. PBMC from 3 healthy donors were cultured with training compounds and supplemented with IL-2 (50 U/ml) for 14 days. T-cell clones were generated from the T-cell lines by serial dilution and repetitive mitogen stimulation. T-cells (0.3–3 cells/well) were stimulated with irradiated allogenic PBMC (5 × 10^4/well) and phytohemagglutinin (1 µg/ml). Well growing cultures were subjected to a second round of expansion then tested for drug-specific T-cell proliferation. Proliferation was measured by the addition of ^3H-thymidine followed by scintillation counting. A–C, Initial specificity test for nitroso sulfamethoxazole, vancomycin, and Bandrowski’s base clones. T-cell clones showing stimulation index, SI ≥ 2 were considered drug-responsive and expanded and used in dose-response studies. SI = Drug-induced T-cell proliferation divided by T-cell proliferation in cell culture media. […] T-cell activation was determined using [^3H]-thymidine incorporation.
Figure 7. […] PBMC from 3 healthy donors were cultured with test compounds and supplemented with IL-2 (50 U/ml) for 14 days. T-cell clones were generated from the T-cell lines by serial dilution and repetitive mitogen stimulation. T-cells (0.3–3 cells/well) were stimulated with irradiated allogenic PBMC (5 × 10^4/well) and phytohemagglutinin (1 µg/ml). Well growing cultures were subjected to a second round of expansion then tested for drug-specific T-cell proliferation. Proliferation was measured by the addition of ^3H-thymidine followed by scintillation counting. […] T-cell activation was determined using [^3H]-thymidine incorporation.

Details of data set [1]: method as in FDA DILIrank datasets. The settings on record: ref FDA DILIrank datasets; cited from earlier work.
Details of data set [2]: method as in Sakatis et al., 2012; Schofield et al., 2021. Conditions: Positive = above the threshold of concern; assays not listed negative; ref Sakatis et al., 2012; Schofield et al., 2021; cited from earlier work.
In the next data set the test system is PBMC. Nature of the data set: Inhibition of mitogen-induced (PHA-P) PBMC proliferation. The format is cell-based, human. Conditions: compound 48 h, then PHA-P 10 µg/ml 24 h, [3H]-thymidine. How it is done: Test compounds were provided by GSK to Liverpool as blinded dry powders with a given volume of dimethyl sulfoxide to prepare stock concentrations of 50 mM. Stock concentrations were aliquoted and stored at −80°C until required for experiments. A fresh aliquot was utilized for every experiment. PBMC from 3 healthy donors were used to determine the maximum tolerated concentration of each test compound. PBMC (0.15 × 10^6) were cultured with graded compound concentrations in U-bottomed 96-well plates for 48 h at 37°C, 5% CO2. Phytohemagglutinin (PHA-P; 10 µg/ml) was added to cells for a further 24 h followed by assessment of proliferation through the addition of [^3H]-thymidine (0.5 µCi/well) for the last 16 h. […] The IC50 value was then calculated using 4-parameter logistic curve-fitting model (GraphPad prism 7.0).
Figure 2. Toxicity profiles of training and test compounds. […] PHA-P (10 µg/ml) was added to cells for a further 24 h followed by assessment of proliferation through the addition of [^3H]-thymidine (0.5 µCi/well) for the last 16 h. […] 4-parameter logistic functions were fit to the data and IC50 values were then reported (GraphPad prism 7.0). […] LPB (Liverpool Pharmacology Biobank) represents the unique identifier for PBMC isolated from each consented healthy blood donor for drug safety research. Percentage proliferation for each compound concentration = Proliferation following drug exposure divided by proliferation after cell culture media exposure multiplied by 100.

On the set-up of data set [3]: method as in earlier work. The settings on record: ref National Institute of Diabetes and Digestive and Kidney Diseases (2012); cited from earlier work.
A further data set deals with naïve T-cells. Nature of the data set: Priming of naïve human T-cells (dendritic cell-T-cell coculture). Conditions: for Proliferation of primed T-cells, drug- vs medium-restimulated wells: 14 days priming, restimulation 48 h at single concentration, 48 wells, [3H]-thymidine; for Proliferation in medium restimulated wells after priming: primed 2 weeks, medium restimulation. The data set is classed as cell-based. How it is done: CD14+ monocytes were positively selected using CD14 antibody-conjugated microbeads. This was followed by the depletion of CD25+ cells from the CD14- population and the negative selection of CD45RA+ naïve T-cells. […] Dendritic cells were generated by culturing monocytes with a cocktail of GM-CSF (800 U/ml) and IL-4 (800 U/ml) in culture media for 6 days. Both cytokines were purchased from Peprotech (New Jersey). A maturation cocktail of TNF-α (25 ng/ml) and LPS (1 µg/ml) was added for 16 h before establishing the T-cell priming culture. Dendritic cells (8 × 10^3 per well) were cultured with naïve T-cells (1 × 10^5 per well) and the test compounds in a 96-well U-bottom tissue culture plate for 14 days at 37°C, 5% CO2. Cells were then washed extensively to remove unbound drug and cultures were restimulated with test compound or medium control (48 wells) for 48 h. Subsequent experiments were performed with training compounds to investigate the dose-dependent stimulation of naïve T-cells. In these experiments, T-cells were cultured with 3 concentrations of the test compound and medium (negative control) during the restimulation step. T-cell proliferative responses were determined by addition of [^3H]-thymidine (0.5 µCi/well) for the final 16 h of the culture period. Plates were harvested and counted as described above. […] Student’s t test was performed to determine statistical significance of T-cell proliferation when comparing medium- and drug-treated cultures (*p ≤ .05; **p ≤ .005; ***p < .001).
Figure 3. Naïve T-cell priming with training compounds. CD14+ monocytes were utilized to generate dendritic cells with a cocktail of GM-CSF (800 U/ml) and IL-4 (800 U/ml) in culture media for 6 days. […] A, Nitroso sulfamethoxazole. B, Vancomycin. C, Bandrowski’s base. D, Carbamazepine. E, Piperacillin. The degree of naïve T-cell priming was determined by comparing the counts per minutes (cpm) of drug and media-treated cultures using a beta counter. Student’s t test was performed to determine statistical significance (*p ≤ .05; **p ≤ .005; ***p < .001). Each data point represents T-cells proliferation in individual well of a 96 U-bottomed plate.
Figure 4. Dose-dependent stimulation of primed T-cells with training compound. […] Primed cells were washed extensively and then restimulated with 3 drug concentrations (low, medium, and high) for 48 h followed by determination of T-cell activation by [^3H]-thymidine incorporation. Each data point represents T-cells proliferation in individual well of a 96 U-bottomed plate.
Figure 5. Naïve T-cell priming with test compounds. […] B, Dacarbazine. […] F, Iproniazid. G, Mepivacaine. H, Nevirapine. […] J, Phenoxybenzamine. Primed cells were washed extensively and then restimulated medium or drug for 48 h followed by determination of T-cell activation by [^3H]-thymidine incorporation. Each data point represents T-cells proliferation in individual well of a 96 U-bottomed plate.

The mark [4] stands for this setting: Homo sapiens, PBMC, PBMC from 3 healthy donors, read-out: IC50, inhibition of mitogen-driven PBMC proliferation.
Setting [5] is: PBMC from 3 healthy donors, read-out: IC50, inhibition of mitogen-driven PBMC proliferation.

Like-named read-outs stand apart in the source and are kept apart here.

For the molecule `CN(C)/N=N/c1[nH]cnc1C(N)=O` [Dacarbazine], in the data set on T-cell clones, the “Overall immunogenicity call in T-cell assays” value (from here on “Overall immunogenicity call”) is given as “did not flag these compounds as immunogenic”. For the same molecule, in data set [1], the “FDA Clinical Hepatotoxicity Concern” value is “Most”. Besides, in data set [2], the “Routine Assays that are Positive (GSK)” value is “Reactive metabolite; 3D hepatocyte spheroid”. For the same molecule, the IC50 was 15 µM in the data set on PBMC (setting [4]) and ≤ 20 µM with PBMC (setting [5]). Besides, the “LiverTox annotation: likelihood as cause of clinically apparent liver injury” value (from here on “LiverTox annotation: likelihood as cause”) in data set [3] is “Highly likely cause of clinically apparent liver injury. May be immunologically mediated as usually occurs with second or third cycle and accompanied by eosinophilia”.

In the case of `COc1cc([C@@H]2c3cc4c(cc3[C@@H](O[C@@H]3O[C@@H]5CO[C@@H](C)O[C@H]5[C@H](O)[C@H]3O)[C@H]3COC(=O)[C@H]23)OCO4)cc(OC)c1O` [Etoposide], the “Overall immunogenicity call” value in the data set with T-cell clones is on record as “no false positives”. In addition, the “FDA Clinical Hepatotoxicity Concern” value in data set [1] is “Less”. Moreover, the IC50 is 20 µM in the data set with PBMC (setting [4]) and ≤ 20 µM with PBMC (setting [5]). Besides, the “LiverTox annotation: likelihood as cause” value in data set [3] was “Probable cause of clinically apparent liver injury. Absence of immunoallergic features (rash, fever, eosinophilia) and of autoantibodies noted. Uncommon to have features of hypersensitivity”.

For the molecule `CC(C)NNC(=O)c1ccncc1` [Iproniazid], the “Overall immunogenicity call” value in the data set with T-cell clones was “did not flag these compounds as immunogenic”. In data set [1], the “FDA Clinical Hepatotoxicity Concern” value is “Most”. Besides, the “Proliferation of primed T-cells, drug- vs medium-restimulated wells” value (shortened to “Proliferation … vs medium-restimulated wells”) with naïve T-cells is recorded as “increases in proliferation with drug restimulation was not observed”. The “Proliferation in medium restimulated wells after priming” value (“Proliferation … after priming” below) with naïve T-cells is “high level of proliferation”. Besides, in data set [2], the “Routine Assays that are Positive (GSK)” value is given as “None”. The IC50 with PBMC (PBMC from 3 healthy donors, listed as iproniazid, read-out: IC50, inhibition of mitogen-driven PBMC proliferation) was ≥ 50 µM; in the data set with PBMC (setting [5]), 290 µM.

Turning to `Cc1cccc(C)c1NC(=O)C1CCCCN1C` (centres unmarked) [Mepivacaine], the “Overall immunogenicity call” value in the data set on T-cell clones is recorded as “no false positives”. The “FDA Clinical Hepatotoxicity Concern” value in data set [1] is “No”. For the same molecule, in the data set with naïve T-cells, the “Proliferation … vs medium-restimulated wells” value is on record as “increases in proliferation with drug restimulation was not observed” and the “Proliferation … after priming” value is listed as “high level of proliferation”. For the same molecule, the “Routine Assays that are Positive (GSK)” value in data set [2] is recorded as “None”. Further, the IC50 with PBMC (PBMC from 3 healthy donors, listed as mepivacaine, read-out: IC50, inhibition of mitogen-driven PBMC proliferation) is ≥ 50 µM. In addition, in the data set with PBMC (setting [5]), the IC50 stood at 210 µM. In addition, the “LiverTox annotation: likelihood as cause” value in data set [3] is recorded as “Unlikely to be a cause of clinically apparent liver injury”.

For the molecule `Cc1ccnc2c1NC(=O)c1cccnc1N2C1CC1` [Nevirapine], the “Overall immunogenicity call” value in the data set with T-cell clones was “did not flag these compounds as immunogenic”. Also, in data set [1], the “FDA Clinical Hepatotoxicity Concern” value is reported as “Most”. Further, the “Proliferation … vs medium-restimulated wells” value with naïve T-cells is reported as “increases in proliferation with drug restimulation was not observed”. The “Proliferation … after priming” value with naïve T-cells is on record as “high level of proliferation”. Besides, in data set [2], the “Routine Assays that are Positive (GSK)” value is reported as “None”. Besides, the IC50 was ≥ 50 µM in the data set with PBMC (PBMC from 3 healthy donors, listed as nevirapine, read-out: IC50, inhibition of mitogen-driven PBMC proliferation) and 110 µM in the data set with PBMC (setting [5]). Also, in data set [3], the “LiverTox annotation: likelihood as cause” value is “Well-known cause of clinically apparent liver injury. Immunoallergic hepatitis associated with specific HLA types”.

As for `O=C1CN(/N=C/c2ccc([N+](=O)[O-])o2)C(=O)N1` [Nitrofurantoin], the “Overall immunogenicity call” value with T-cell clones is “did not flag these compounds as immunogenic”. The “FDA Clinical Hepatotoxicity Concern” value in data set [1] is “Most”. The IC50 in the data set with PBMC (setting [4]) is 15 µM; in the data set with PBMC (setting [5]) it was ≤ 20 µM. For the same molecule, the “LiverTox annotation: likelihood as cause” value in data set [3] is “Well-known cause of clinically apparent liver injury. Oxidative free radical formation. Some cases show autoimmune etiology with linkage to HLA-DR6 and DR2”.

`CC(COc1ccccc1)N(CCCl)Cc1ccccc1` (centres unmarked) [Phenoxybenzamine]: the “Overall immunogenicity call” value in the data set on T-cell clones was “no false positives”. In data set [1], the “FDA Clinical Hepatotoxicity Concern” value is reported as “No”. Moreover, the “Routine Assays that are Positive (GSK)” value in data set [2] is “Reactive metabolite”. Moreover, the IC50 is 15 µM in the data set with PBMC (Homo sapiens, PBMC, read-out: IC50, inhibition of mitogen-driven PBMC proliferation, PBMC from 3 healthy donors) and ≤ 20 µM with PBMC (read-out: IC50, inhibition of mitogen-driven PBMC proliferation, PBMC from 3 healthy donors).
